The NIST ThermoML archive (doi:10.1021/je900722m)
Numbers after ± are expanded uncertainties.

Conditions: 101.33 kPa, Liquid

Row | Structure (SMILES) | mass density (303.15 K) [kg/m3] | viscosity (303.15 K) [mPa·s] | mass density (308.15 K) [kg/m3] | viscosity (308.15 K) [mPa·s] | mass density (313.15 K) [kg/m3] | viscosity (313.15 K) [mPa·s] | mass density (318.15 K) [kg/m3] | viscosity (318.15 K) [mPa·s] | mass density (323.15 K) [kg/m3] | viscosity (323.15 K) [mPa·s] | mass density (328.15 K) [kg/m3] | viscosity (328.15 K) [mPa·s] | mass density (333.15 K) [kg/m3] | viscosity (333.15 K) [mPa·s] | mass density (338.15 K) [kg/m3] | viscosity (338.15 K) [mPa·s] | mass density (343.15 K) [kg/m3] | viscosity (343.15 K) [mPa·s]
1 | CC(C)CO [2-methyl-1-propanol] | 794.064 ± 0.46 | 2.649 ± 0.045 | 790.123 ± 0.46 | 2.28 ± 0.039 | 786.12 ± 0.47 | 1.965 ± 0.034 | 782.061 ± 0.48 | 1.692 ± 0.03 | 777.932 ± 0.48 | 1.482 ± 0.026 | 773.732 ± 0.49 | 1.268 ± 0.023 | 769.448 ± 0.5 | 1.116 ± 0.02 | 765.079 ± 0.51 | 0.9851 ± 0.019 | 760.611 ± 0.51 | 0.8767 ± 0.017
2 | CCCCO [butan-1-ol] | 802.213 ± 0.44 | 2.296 ± 0.039 | 798.343 ± 0.45 | 2.025 ± 0.035 | 794.425 ± 0.45 | 1.795 ± 0.031 | 790.465 ± 0.46 | 1.595 ± 0.028 | 786.456 ± 0.47 | 1.417 ± 0.025 | 782.399 ± 0.47 | 1.271 ± 0.023 | 778.281 ± 0.48 | 1.138 ± 0.021 | 774.098 ± 0.49 | 1.028 ± 0.019 | 769.845 ± 0.49 | 0.9306 ± 0.018
3 | CC(C)(C)O [2-methylpropan-2-ol] |  |  | 770.365 ± 0.5 | 2.69 ± 0.046 | 765.07 ± 0.51 | 2.142 ± 0.037 | 759.675 ± 0.52 | 1.737 ± 0.03 | 754.193 ± 0.53 | 1.428 ± 0.025 | 748.621 ± 0.54 | 1.196 ± 0.022 | 742.954 ± 0.55 | 1.016 ± 0.019 | 737.19 ± 0.56 | 0.8734 ± 0.017 | 731.313 ± 0.56 | 0.7603 ± 0.016
4 | CCC(C)O (stereo not given) [butan-2-ol] | 798.351 ± 0.48 | 2.607 ± 0.045 | 794.052 ± 0.48 | 2.163 ± 0.037 | 789.658 ± 0.49 | 1.84 ± 0.032 | 785.159 ± 0.5 | 1.557 ± 0.028 | 780.552 ± 0.51 | 1.333 ± 0.024 | 775.832 ± 0.51 | 1.151 ± 0.021 | 770.993 ± 0.52 | 1.002 ± 0.019 | 766.038 ± 0.53 | 0.8779 ± 0.017 | 760.962 ± 0.54 | 0.7769 ± 0.016
